In EP0039059A2, “Anti-inflammatory drugs and their application” (F. HOFFMANN-LA ROCHE & CO. Aktiengesellschaft, priority 1980, dated 1981):

Tests used:
[1] = system: Krotonöl-Entzündung in der Maus; test: Croton oil inflammation in the mouse (ear punch weight); assay type: in vivo, Mäusen (Charles River CD-1); details: for Hemmung in %: topical, mouse ear, 6 h; for Gewicht der Ohrstücke in mg: croton oil alone 19,7±0,6, vehicle without croton oil 7,2
Description: Eine Lösung aus 0,1 Teilen Krotonöl, 1 Teil destilliertem Wasser, 4 Teilen Pyridin und 4,9 Teilen Diäthyläther (Volumenteile), welche die Testverbindung enthält, wird topisch auf Ohren von 21 Tage alten männlichen Mäusen (Charles River CD-1) gegeben (25 ul). Verschiedene Gruppen von Mäusen dienten als Kontrollgruppen (Trägermaterial-Gruppe und Krotonöl-Gruppe). Nach 6 Stunden wird das Gewicht der Ohrstücke bestimmt, das in erster Linie ein Mass für die Oedem-Komponente der Entzündung ist. Verminderung des Gewichtes von Ohrstücken, welche von Mäusen erhalten wurden, welche mit der Testverbindung und dem Reizmittel behandelt worden sind, verglichen mit dem Gewicht von Ohrstücken, die von Mäusen erhalten wurden, die nur mit dem Reizmittel behandelt worden sind, zeigt entzündungshemmende Wirkung an (Endocrinology 77, 625-634, 1965; Clin. Pharm. Exp. Therap. 16, 900-904, 1974).
Die Verbindung E wird bei 3 verschiedenen Dosierungen im Krotonöl-Entzündungs-Test in der Maus auf ihre topisch entzündungshemmende Wirkung hin geprüft. Ebenfalls getestet werden Hydrocortison, ein bekanntes topisch entzündungshemmendes Corticosteroid, und eine Reihe von bekannten Verbindungen, welche systemisch entzündungshemmend wirken und nicht zur Klasse der Steroide gehören. Die Testresultate (Hemmung in Prozenten) sind in der unten stehenden Tabelle angegeben. Wie man diesen Resultaten entnehmen kann, entfaltet die Verbindung E eine vergleichbare Aktivität wie Hydrocortison, währenddem die anderen Verbindungen, welche nicht zur Klasse der Steroide gehören, in wesentlich höheren Dosierungen verabreicht werden müssen, um eine vergleichbare Hemmung zu bewirken, wie die Verbindung E und Hydrocortison.
Die entzündungshemmende Wirkung der Verbindung E alleine oder in Kombination mit 4-(3-Butoxy-4-methoxybenzyl)-2-imidazolidinon wird im Krotonöl-Test an der Maus bestimmt. Die Verbindung E wird bei verschiedenen Konzentrationen verwendet. 4-(3-Butoxy-4-methoxybenzyl)-2-imida- zolidinon wird, sofern vorhanden, in einer Konzentration von 5 Gewichtsprozenten (bezogen auf das Gewicht der applizierten Lösung) eingesetzt. Die Testresultate sind in der unten stehenden Tabelle aufgeführt.

[2] = system: Oxazolon-Entzündung in vorsensibilisierten Mäusen; test: Oxazolone inflammation in presensitised mice (ear punch weight); assay type: in vivo, Mäuse (Charles River CD-1); details: topical, mouse ear, 24 h
Description: 21 Tage alte männliche Mäuse (Charles River CD-1) werden mit Oxazolon sensibilisiert, indem man 400 ug Oxazolon in 20 ul Aceton topisch auf das Scrotum appliziert.. Eine Woche später werden 10 ul Aceton oder 200 µg Oxazolon topisch auf die innere Oberfläche des Ohres und die Testverbindung in 10 µl Aceton auf die äussere Oberfläche des Ohres appliziert. Verschiedene Gruppen von Mäusen dienten als Kontrollgruppen (Trägermaterial-Gruppe und Oxazolon-Gruppe). Das Gewicht der Ohrstücke wird 24 Stunden später bestimmt. Verminderung des Gewichtes der Ohrstücke, erhalten aus Mäusen, welche mit der Testverbindung und mit Oxazolon behandelt worden sind, verglichen mit dem Gewicht der Ohrstücke, erhalten aus Mäusen, welche mit Oxazolon alleine behandelt worden sind, zeigt entzündungshemmende Wirkungen (Br. J. Pharmacol. 43, 403-408, 1971).
Die topisch entzündungshemmenden Wirkungen der Verbindung E, Hydrocortison und Indomethacin werden bei verschiedenen Dosierungen im Oxazolon-Entzündungs-Test in vorsensibilisierten Mäusen bestimmt. Die Testresultate (Hemmung in %) sind in der untenstehenden Tabelle angegeben.

[3] = system: Baumwollkügelchen-Granuloma; test: Cotton pellet granuloma method in the rat; assay type: in vivo, Ratten (Charles River CD); details: s.c. implant, 72 h; for durchschnittliches Nettogewicht der Kügelchen in mg trocken: ethanol vehicle 32.6; for durchschnittliches Nettogewicht der Kügelchen in mg feucht: ethanol vehicle 392.5
Description: Man löst die Testverbindung in einem geeigneten Lösungsmittel und appliziert jeweils 0,1 ml dieser Lösung auf einheitliche, vorher gewogene Baumwollkügelchen, die man aus Baumwolltampons herausgeschnitten hat. Man trocknet die Baumwollkügelchen bei Raumtemperatur. 2 mit der Testverbindung imprägnierte Kügelchen werden auf dem Dorsum von 5 Wochen alten männlichen Ratten (Charles River CD) subcutan inplantiert. 72 Stunden später werden die Kügelchen entfernt. Man bestimmt das Feucht- und Trockengewicht und korrigiert um das Tara der Kügelchen. Vergleicht man nun die Gewichte der Granulomata, die man von mit der Testverbindung imprägnierten Kügelchen erhalten hat, mit den Gewichten der Granulomata, die man von nur mit Trägermaterial imprägnierten Kügelchen erhalten hat, miteinander, so zeigt eine Abnahme des Gewichtes entzündungshemmende Wirkung an (Endocrinology 60, 153-160, 1957).
Die topisch entzündungshemmenden Wirkungen der Verbindung E und Hydrocortison werden durch Verwendung des Baumwollkügelchen-Granuloma-Verfahrens an der Ratte bestimmt. Die in der unten stehenden Tabelle angegebenen Testresultate zeigen, dass die Verbindung E bei Dosierungenen von 90 und 270 µg/0,1 ml grösser ist als die Akti- vität von Hydrocortison (niedrigere Feucht- und Trockengewichte).

[4] = system: Cantharidin-Entzündung in der Ratte; test: Cantharidin inflammation in the rat (ear punch weight); assay type: in vivo, Ratten (Charles River CD); details: 100 µg/0,1 ml topical, compound given 24 h after cantharidin, autopsy 72 h
Description: Eine Lösung aus einem Teil Aethanol, 1,5 Teilen Collodion, 2 Teilen Aceton und 3 Teilen Diäthyläther (Volumenteile), welche 400 ug Cantharidin/0,1 ml und die Testverbindung in der gewünschten Menge enthält, wird topisch auf die äussere Oberfläche von Ohren von 21 Tage alten männlichen Ratten (Charles River CD) gegeben (0,1 ml). Andere Gruppen von Ratten werden mit Trägermaterial alleine, mit Cantharidin alleine und mit Cantharidin plus Testverbindung behandelt. Wo in den Beispielen angegeben, wird die Testverbindung 24 Stunden nach Verabreichung von Cantharidin verabreicht. 72 Stunden nach Verabreichung von Cantharidin wird eine Autopsie durchgeführt. Aus dem Ohr werden an der behandelten Stelle einheitliche Stücke herausgestanzt und gewogen. Aus den Gewichtsveränderungen lassen sich die Auswirkungen auf den Entzündungsprozess ermitteln, und zwar sowohl für die Flüssigkeits- als auch für die Gewebskomponente. Eine Reduktion des Gewichtes von Hautstücken, die man aus Ratten erhalten hat, welche mit dem Reizmittel und der Testverbindung behandelt worden sind, verglichen mit dem Gewicht von Hautstücken, welche man von Ratten erhalten hat, die nur mit dem Reizmittel behandelt worden sind, zeigt eine entzündungshemmende Wirkung an (J. Invest. Dermatol. 68, 161-164, 1977).
Eine Reihe von Verbindungen der allgemeinen Formel I werden im Cantharidin-Entzündungs-Test in der Ratte auf ihre topisch entzündungshemmenden Wirkungen hin ge- testet. Jede Verbindung wird bei 5 verschiedenen Dosierungen getestet. Die in der nachfolgenden Tabelle ange- gebenen Testresultate (in %) geben an, um wieviel die durch Cantharidin bewirkte Zunahme des Gewichtes der Ohrstücke durch die jeweilige Testverbindung reduziert wird: • [formula]
Die topisch entzündungshemmende Wirkung der Verbindung E wird bei einer Dosierung von 100 µg/0,1 ml im Cantharidin- Entzündungs-Test in der Ratte bestimmt, wobei man adrenalektomierte und intakte Ratten verwendet. Wie man den Testresultaten in der untenstehenden Tabelle entnehmen kann, entfaltet die Verbindung E an der adrenalektomierten Ratte etwa die gleich grosse Wirkung wie an der intakten Ratte. Dies zeigt an, dass der primäre Wirkungsmechanismus nicht in der Stimulierung der Nebennierenrinde besteht.

[5] = pellets impregnated with 90 µg/0.1 ml
[6] = pellets impregnated with 270 µg/0.1 ml

C[C@]12CCC(=O)C=C1CC[C@@H]1[C@@H]2[C@@H](O)C[C@@]2(C)[C@H]1CC[C@]2(O)C(=O)CO [Hydrocortison]
Hemmung in % ([1]; dose 50 µg/25 µl): 53% | Hemmung in % ([1]; dose 125 µg/25 µl): 77% | Hemmung in % ([1]; dose 250 µg/25 µl): 98% | Hemmung in % ([2]; dose 50 µg/10 µl): 24% | Hemmung in % ([2]; dose 200 µg/10 µl): 49% | durchschnittliches Nettogewicht der Kügelchen in mg trocken [3, 5]: 37.7 mg | durchschnittliches Nettogewicht der Kügelchen in mg feucht [3, 5]: 406.5 mg | durchschnittliches Nettogewicht der Kügelchen in mg trocken [3, 6]: 20.3 mg | durchschnittliches Nettogewicht der Kügelchen in mg feucht [3, 6]: 286.6 mg

CCCCOc1cc(CC2CNC(=O)N2)ccc1OC (stereo not drawn) [4-(3-Butoxy-4-methoxybenzyl)-2-imidazolidinon]
Gewicht der Ohrstücke in mg ([1]; 5% imidazolidinone, Verbindung E 0 µg/0,1 ml): 17,6±1,0 mg | entzündungshemmende Wirkung ([1]; alone, at concentrations of 5%, test not given): nur wenig oder gar keine entzündungshemmende Wirkung | Einfluss auf die entzündungshemmende Wirkung der Verbindung E ([1]; imidazolidinone at 5% combined with Verbindung E): potenziert

CC(=O)Oc1ccccc1C(=O)O [Acetylsalicyl säure]
Hemmung in % ([1]; dose 1250 µg/25 µl): 28% | Hemmung in % ([1]; dose 2500 µg/25 µl): 36% | Hemmung in % ([1]; dose 5000 µg/25 µl): 78% | Hemmung in % ([1]; dose 10000 µg/25 µl): 88%

Phenylbutazon
Hemmung in % ([1]; dose 1250 µg/25 µl): 33% | Hemmung in % ([1]; dose 2500 µg/25 µl): 69%

COc1ccc2cc([C@H](C)C(=O)O)ccc2c1 [Naproxen]
Hemmung in % ([1]; dose 1250 µg/25 µl): 60% | Hemmung in % ([1]; dose 2500 µg/25 µl): 87%

CC(C(=O)O)c1cccc(Oc2ccccc2)c1 (stereo not drawn) [Fenoprofen]
Hemmung in % ([1]; dose 1250 µg/25 µl): 50% | Hemmung in % ([1]; dose 2500 µg/25 µl): 71%

CN1CCN(C2=Cc3ccccc3Sc3ccc(Cl)cc32)CC1 [Verbindung E, 8-Chlor-10-(4-methylpiperazino)dibenzo-[b,f]thiepin]
Gewicht der Ohrstücke in mg ([1]; Verbindung E alone, 100 µg/0,1 ml): 15,9±0,8 mg | Gewicht der Ohrstücke in mg ([1]; Verbindung E alone, 400 µg/0,1 ml): 11,8±0,6 mg | Hemmung in % ([1]; dose 100 µg/25 µl): 48% | Hemmung in % ([1]; dose 200 µg/25 µl): 67% | Hemmung in % ([1]; dose 500 µg/25 µl): 91% | Hemmung in % ([2]; dose 100 µg/10 µl): 51% | Hemmung in % ([2]; dose 500 µg/10 µl): 75% | Hemmung in % ([4]; adrenalectomised rats): 49% | Gewicht der Ohrstücke ([4]; adrenalectomised rats, vehicle 11.4±0.2, cantharidin alone 25.5±1.0): 18.6±0.6 | Hemmung in % ([4]; intact rats): 55% | Gewicht der Ohrstücke ([4]; intact rats, vehicle 12.0±0.4, cantharidin alone 25.2±1.5): 18.0±1.1 | durchschnittliches Nettogewicht der Kügelchen in mg trocken [3, 5]: 20.1 mg | durchschnittliches Nettogewicht der Kügelchen in mg feucht [3, 5]: 285.2 mg | durchschnittliches Nettogewicht der Kügelchen in mg trocken [3, 6]: 16.9 mg | durchschnittliches Nettogewicht der Kügelchen in mg feucht [3, 6]: 234.9 mg

COc1ccc2c(c1)c(CC(=O)O)c(C)n2C(=O)c1ccc(Cl)cc1 [Indomethacin]
Hemmung in % ([2]; dose 500 µg/10 µl): 32% | Hemmung in % ([2]; dose 1000 µg/10 µl): 59%
